According to patent US20240199572A1, “COMPOUNDS, COMPOSITIONS, AND METHODS FOR TREATING TYPE 2 DIABETES AND DEMENTIA” (THE BOARD OF TRUSTEES OF THE UNIVERSITY OF ILLINOIS, priority 2021, published 2024):

Legend:
ABCA1 mRNA [1] = test: ABCA1 mRNA - HepG2 (qRT-PCR); type: cell-based, human
Description: (§1) qRT-PCR. For cell samples, treated cells were lysed with RLT plus lysis buffer (Qiagen). RNA was isolated with Qiagen RNEASY® Plus columns per manufacturer instructions, then reverse-transcribed to cDNA using […]® III Reverse Transcriptase (200 U/μL, Invitrogen) per supplier protocol. qPCR experiments were either performed with TAQMAN® gene expression master mix (Invitrogen) on a StepOne™ qPCR instrument or with […]® SYBR® Green SuperMix (Quanta Biosciences) on CFX Connect™ Real-Time PCR Detection System (BioRad), with fold-change quantified by ΔΔCt. For animal samples, 100 mg tissue was homogenized in 1 mL acid-guanidinium-phenol based reagent sold under the tradename TRIZOL® (Ambion), mixed vigorously in chloroform, and separated by centrifugation. Aqueous layer containing RNA was added to Qiagen RNEASY® Plus column; remaining stops were as described above for cell lysates.

PPARβ/δ = target: T1, PPARβ/δ (Homo sapiens, UniProt Q03181); test: PPARβ/δ NHR screen, antagonist mode; conditions: cell-based β-gal reporter assay, 10 μM
T1 sequence (Q03181 1-441): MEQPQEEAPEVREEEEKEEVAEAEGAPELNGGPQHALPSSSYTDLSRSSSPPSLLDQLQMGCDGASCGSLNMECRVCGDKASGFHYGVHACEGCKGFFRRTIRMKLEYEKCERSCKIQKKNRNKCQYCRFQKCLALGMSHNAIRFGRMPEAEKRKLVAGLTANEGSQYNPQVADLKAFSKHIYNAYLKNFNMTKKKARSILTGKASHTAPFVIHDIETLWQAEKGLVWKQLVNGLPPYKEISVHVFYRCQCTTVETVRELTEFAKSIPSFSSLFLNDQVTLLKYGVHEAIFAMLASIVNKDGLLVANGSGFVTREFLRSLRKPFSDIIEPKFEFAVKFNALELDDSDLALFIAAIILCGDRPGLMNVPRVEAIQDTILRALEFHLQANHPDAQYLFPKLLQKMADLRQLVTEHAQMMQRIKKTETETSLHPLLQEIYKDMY
Procedure: (§2) Receptor Binding Assays. Nuclear hormone (NHR) assays were performed by DiscoverX (Fremont, CA) on their NHR-Scan platform of cell-based protein-protein interaction assays. This platform uses a […] reporter that activates upon interaction of full-length receptor protein with steroid coactivator receptor peptides. In agonist mode, activity of CL2-57 at 10 μM was compared to maximal activity of published positive control agonists; in antagonist mode, reduction in activity with 10 μM CL2-57 from that observed at […] of published agonists was quantified.

J774 cells = test: Lipopolysaccharide-stimulated J774 cells, TNFα and NOS2; type: cell-based; conditions: co-treatment
Description: as §1

ABCA1 = ABCA1 firefly reporter assay in CCF-001 cells; type: cell-based; conditions: ABCA1 firefly reporter assay in CCF-001 cells (Table 8)
ABCA1 protein = ABCA1 protein - J774 (immunoblot); type: cell-based
Procedure: In vitro Immunoblot. Cells were lysed with RIPA buffer (Sigma) containing protease/phosphatase inhibitors (Cocktails II and III, respectively, EMD Millipore). Protein was quantified by BCA assay (Thermo Fisher Scientific). Denatured proteins were separated by gel electrophoresis (NuPage™ 4-12% Bis-Tris, Invitrogen) in MOPS running buffer at 120 V for 1 hour. Proteins were transferred to PDVF membranes (iBlot2). Membrane was blocked in 5% skim milk for 1 hour, incubated with primary antibody at 4° C. overnight, washed with TBST, and then incubated with HRP-linked secondary antibody (Cell Signaling Technology) for 1 hour at room temperature. After TBST wash, membrane was imaged using SUPERSIGNAL® West Femto™ substrate (Thermo Fisher Scientific) on Azure Biosystems c400 imager. Antibodies used: Abcam ab18180 (ABCA1, RRID:AB 444302), Thermo Fisher MA5-11685 (SREBP1, RRID:AB_10984077), Invitrogen MA5-15738 (GAPDH, RRID:AB_10977387).

LXRβ = target: T2, LXRβ (Homo sapiens, UniProt P55055); test: LanthaScreen TR-FRET coactivator assay LXRβ; type: biochemical; conditions: read-out: EC50, LXRβ agonism, coactivator recruitment via TR-FRET
T2 construct: purchased Thermo Fisher Scientific
T2 sequence (P55055 212-460 limits assumed): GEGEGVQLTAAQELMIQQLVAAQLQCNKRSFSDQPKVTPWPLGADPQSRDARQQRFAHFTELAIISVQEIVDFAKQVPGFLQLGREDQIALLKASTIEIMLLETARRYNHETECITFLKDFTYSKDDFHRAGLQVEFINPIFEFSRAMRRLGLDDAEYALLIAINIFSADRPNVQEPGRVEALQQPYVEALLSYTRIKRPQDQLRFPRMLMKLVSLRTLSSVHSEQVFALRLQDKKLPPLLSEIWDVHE

ABCA1 mRNA [2] = test: ABCA1 mRNA - J774 (qRT-PCR); type: cell-based, mouse
Description: as §1

CD1 mice = test: CD1 mice, three daily p.o. treatments, LXR agonist adverse effects; type: in vivo, mouse; conditions: 10 mg/kg p.o., three days
Description: Neutrophil Counts. […] After final dose, blood samples were run on an Advia 120 analyzer (Bayer) for neutrophil counts.

LXRα = target: T3, LXRα (Homo sapiens, UniProt Q13133); test: LXRα NHR screen (DiscoverX NHR-Scan, β-gal reporter); type: cell-based
T3 sequence (Q13133 1-447): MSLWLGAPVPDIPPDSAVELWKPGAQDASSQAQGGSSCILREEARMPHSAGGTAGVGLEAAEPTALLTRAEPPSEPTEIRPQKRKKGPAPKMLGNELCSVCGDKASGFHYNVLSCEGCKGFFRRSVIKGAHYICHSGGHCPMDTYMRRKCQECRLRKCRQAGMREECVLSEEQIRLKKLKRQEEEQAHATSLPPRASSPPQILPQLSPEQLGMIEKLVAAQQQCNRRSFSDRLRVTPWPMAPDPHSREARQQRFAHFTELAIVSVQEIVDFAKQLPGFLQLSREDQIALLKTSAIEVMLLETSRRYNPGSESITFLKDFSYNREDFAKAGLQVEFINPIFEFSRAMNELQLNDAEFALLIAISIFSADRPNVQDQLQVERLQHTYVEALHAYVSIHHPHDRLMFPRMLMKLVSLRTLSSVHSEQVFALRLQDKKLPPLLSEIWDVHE
Procedure: as §2

SREBF1 mRNA = SREBF1 mRNA - HepG2 (qRT-PCR); type: cell-based, human
Description: as §1

- Functional mode at PPARβ/δ (PPARβ/δ): weak antagonist
- EC50 (ABCA1): 817 nM
- EC50 (LXRβ): 1300 nM
- LXRα NHR screen, activity of CL2-57 (10 μM) as % of T0901317 (1 μM) (LXRα): 34%
SMILES: CCOC(=O)c1cccc(NC(=O)c2sc(Cl)cc2S(=O)(=O)N(C)c2ccc(OCC)c(OCC)c2)c1 [CL2-57, ethyl 3-(5-chloro-3-(N-(3,4-diethoxyphenyl)-N-methylsulfamoyl)thiophene-2-carboxamido) benzoate]
- ABCA1 mRNA - HepG2, activity of CL2-57 (10 μM) as % of T0901317 (1 μM) (ABCA1 mRNA [1]; 10 μM): 60%
- ABCA1 mRNA (ABCA1 mRNA [1]; HepG2 hepatocarcinoma cells): Increased
- LPS-induced increase of NOS2 (J774 cells): dose-dependently reversed
- LPS-induced increase of TNFα (J774 cells): dose-dependently reversed
- ABCA1 protein - J774, activity of CL2-57 (10 μM) as % of T0901317 (1 μM) (ABCA1 protein; 10 μM): 132%
- ABCA1 protein (ABCA1 protein; J774 macrophage cells): Increased
- ABCA1 mRNA - J774, activity of CL2-57 (10 μM) as % of T0901317 (1 μM) (ABCA1 mRNA [2]; 10 μM): 90%
- ABCA1 mRNA (ABCA1 mRNA [2]; J774 macrophage cells): Increased
- Circulating neutrophil levels (CD1 mice): did not affect
- Plasma TG (CD1 mice): did not affect
- Plasma cholesterol (CD1 mice): did not affect
- SREBF1 mRNA - HepG2, activity of CL2-57 (10 μM) as % of T0901317 (1 μM) (SREBF1 mRNA): 39%
